Source: patent publication US20260265244A1, “HETEROCYCLIC COMPOUNDS AS STING ANTAGONISTS” (Boehringer Ingelheim International GmbH, priority 2022, published 2026)
Read-outs that look alike come from different tables or passages of the source.

Test system: STING inhibition in human whole blood (IFNα2α production)
Assay: Human whole blood assay (HWBA): cGAMP-stimulated IFNα2α production
Format: cell-based
Method in brief: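 Na-citrate human whole blood from ≥3 healthy donors, preincubated 60 min at room temperature with compound (8 concentrations, top 10 μM, ~1:5 steps, 0.1% DMSO), then stimulated with cGAMP and incubated 22 h at 37 °C. Plasma IFNα2α measured by MSD immunoassay; % control versus stimulated/unstimulated wells, IC50 by 4-parameter logistic fit.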

SMILES | IC50 (Homo sapiens) | IC50
[2H][C@](O)(Cn1cc2c(-c3nn(-c4cc5cn(C)nc5nc4C)c(C)c3C(C)C)cccc2n1)c1ccccc1 [Example 3, (1R)-2-[4-(1-{2,6-dimethyl-2H-pyrazolo[3,4-b]pyridin-5-yl}-5-methyl-4-(propan-2-yl)-1H-pyrazol-3-yl)-2H-indazol-2-yl]-1-phenyl(1-^2H)ethan-1-ol] | 58 nM | 
Cc1nc2nn(C)cc2cc1-n1nc(-c2cccc3nn(C[C@H](OCCC(C)(C)O)c4ccccc4)cc23)c(C(C)C)c1C [Example 74, 4-[(1R)-2-[4-(1-{2,6-dimethyl-2H-pyrazolo[3,4-b]pyridin-5-yl}-5-methyl-4-(propan-2-yl)-1H-pyrazol-3-yl)-2H-indazol-2-yl]-1-phenylethoxy]-2-methylbutan-2-ol] | 450 nM | 
COC(C)c1nc2nn(C)cc2cc1-n1nc(-c2cccc3nn(C[C@H](O)c4ccccc4)cc23)c(C(C)C)c1C (stereo partly shown) [Example 75] |  | 450 nM
Cc1c(C(C)C)c(-c2cccc3nn(C[C@H](O)c4ccccc4)cc23)nn1-c1ccn2c(C(F)F)nnc2c1C1CC1 [Example 76] | 520 nM | 
Cc1nc2nn(C)cc2cc1-n1nc(-c2cccc3nn(C[C@H](OCCF)c4ccccc4)cc23)c(C(C)C)c1C [Example 78, 4-(1-{2,6-dimethyl-2H-pyrazolo[3,4-b]pyridin-5-yl}-5-methyl-4-(propan-2-yl)-1H-pyrazol-3-yl)-2-[(2R)-2-(2-fluoroethoxy)-2-phenylethyl]-2H-indazole] | 560 nM | 
C=CCO[C@@H](Cn1cc2c(-c3nn(-c4cc5cn(C)nc5nc4C)c(C)c3C(C)C)cccc2n1)c1ccccc1 [Example 79, 4-(1-{2,6-dimethyl-2H-pyrazolo[3,4-b]pyridin-5-yl}-5-methyl-4-(propan-2-yl)-1H-pyrazol-3-yl)-2-[(2R)-2-phenyl-2-(prop-2-en-1-yloxy)ethyl]-2H-indazole] | 580 nM | 
Cc1c(C(C)C)c(-c2cccc3nn(C[C@H](O)c4ccccc4)cc23)nn1-c1cc2cn(C)nc2nc1C1(C)CC1 [Example 80, (1R)-2-(4-{5-methyl-1-[2-methyl-6-(1-methylcyclopropyl)-2H-pyrazolo[3,4-b]pyridin-5-yl]-4-(propan-2-yl)-1H-pyrazol-3-yl}-2H-indazol-2-yl)-1-phenylethan-1-ol] | 580 nM | 
CCCO[C@@H](Cn1cc2c(-c3nn(-c4cc5cn(C)nc5nc4C)c(C)c3C(C)C)cccc2n1)c1ccccc1 [Example 81, 4-(1-{2,6-dimethyl-2H-pyrazolo[3,4-b]pyridin-5-yl}-5-methyl-4-(propan-2-yl)-1H-pyrazol-3-yl)-2-[(2R)-2-phenyl-2-propoxyethyl]-2H-indazole] | 610 nM | 
Cc1cc([C@@H](O)Cn2cc3c(-c4nn(-c5cc6cn(C)nc6nc5C)c(C)c4C(C)C)cccc3n2)ccn1 [Example 82, (1R)-2-[4-(1-{2,6-dimethyl-2H-pyrazolo[3,4-b]pyridin-5-yl}-5-methyl-4-(propan-2-yl)-1H-pyrazol-3-yl)-2H-indazol-2-yl]-1-(2-methylpyridin-4-yl)ethan-1-ol] | 610 nM | 
Cc1nc2nn(C)cc2cc1-n1nc(-c2cccc3nn(CC(O)C4CCCCC4)cc23)c(C(C)C)c1C (stereo not shown) [Example 83, 1-cyclohexyl-2-[4-(1-{2,6-dimethyl-2H-pyrazolo[3,4-b]pyridin-5-yl}-5-methyl-4-(propan-2-yl)-1H-pyrazol-3-yl)-2H-indazol-2-yl]ethan-1-ol] | 630 nM | 

The remaining lines, values ahead:

IC50 (Homo sapiens) | IC50 | SMILES
640 nM |  | CNc1nc2nn(C)cc2cc1-n1nc(-c2cccc3nn(C[C@H](O)c4ccccc4)cc23)c(C(C)C)c1C [Example 84, (1R)-2-(4-{5-methyl-1-[2-methyl-6-(methylamino)-2H-pyrazolo[3,4-b]pyridin-5-yl]-4-(propan-2-yl)-1H-pyrazol-3-yl}-2H-indazol-2-yl)-1-phenylethan-1-ol]
660 nM |  | COCCO[C@@H](Cn1cc2c(-c3nn(-c4cc5cn(C)nc5nc4C)c(C)c3C(C)C)cccc2n1)c1ccccc1 [Example 85, 4-(1-{2,6-dimethyl-2H-pyrazolo[3,4-b]pyridin-5-yl}-5-methyl-4-(propan-2-yl)-1H-pyrazol-3-yl)-2-[(2R)-2-(2-methoxyethoxy)-2-phenylethyl]-2H-indazole]
690 nM |  | Cc1c(-n2nc(-c3cccc4nn(C[C@H](O)c5ccccc5)cc34)c(C(C)C)c2C)ccn2c(C)nnc12 [Example 86, (1R)-2-[4-(1-{3,8-dimethyl-[1,2,4]triazolo[4,3-a]pyridin-7-yl}-5-methyl-4-(propan-2-yl)-1H-pyrazol-3-yl)-2H-indazol-2-yl]-1-phenylethan-1-ol]
850 nM |  | Cc1c(C(C)C)c(-c2cccc3nn(C[C@H](O)c4ccccc4)cc23)nn1-c1cc2cn(C)nc2nc1N(C)C [Example 87, (1R)-2-(4-{1-[6-(dimethylamino)-2-methyl-2H-pyrazolo[3,4-b]pyridin-5-yl]-5-methyl-4-(propan-2-yl)-1H-pyrazol-3-yl}-2H-indazol-2-yl)-1-phenylethan-1-ol]
930 nM |  | Cc1nc2nn(C)cc2cc1-n1nc(-c2cccc3nn(CC(O)c4ccc(Br)cc4)cc23)c(C(C)C)c1C (stereo not shown) [Example 88, 1-(4-Bromophenyl)-2-[4-(1-{2,6-dimethyl-2H-pyrazolo[3,4-b]pyridin-5-yl}-5-methyl-4-(propan-2-yl)-1H-pyrazol-3-yl)-2H-indazol-2-yl]ethan-1-ol]
1000 nM |  | Cc1c(C(C)C)c(-c2cccc3nn(C[C@H](O)c4ccccc4)cc23)nn1-c1cc2cn(C)nc2nc1C(C)(C)O [Example 89, 2-[5-(3-{2-[(2R)-2-hydroxy-2-phenylethyl]-2H-indazol-4-yl}-5-methyl-4-(propan-2-yl)-1H-pyrazol-1-yl)-2-methyl-2H-pyrazolo[3,4-b]pyridin-6-yl]propan-2-ol]
1100 nM |  | Cn1cc2cc(-c3nc(-c4cccc5nn(C[C@H](O)c6ccc(OCC#N)cc6)cc45)c(C4CC4)n3C)c(C3CC3)nc2n1 [Example 90, 2-{4-[(1R)-2-[4-(5-cyclopropyl-2-{6-cyclopropyl-2-methyl-2H-pyrazolo[3,4-b]pyridin-5-yl}-1-methyl-1H-imidazol-4-yl)-2H-indazol-2-yl]-1-hydroxyethyl]phenoxy} acetonitrile]
1600 nM |  | Cn1cc([C@@H](O)Cn2cc3c(-c4nc(-c5cc6cn(C)nc6nc5C5CC5)n(C)c4C4CC4)cccc3n2)cn1 [Example 91, (1R)-2-[4-(5-cyclopropyl-2-{6-cyclopropyl-2-methyl-2H-pyrazolo[3,4-b]pyridin-5-yl}-1-methyl-1H-imidazol-4-yl)-2H-indazol-2-yl]-1-(1-methyl-1H-pyrazol-4-yl)ethan-1-ol]
2000 nM |  | Cc1nc2nn(C)cc2cc1-n1nc(-c2cccc3nn(C[C@H](O)c4ccccc4)cc23)c(C2(C)CC2)c1C [Example 92, (1R)-2-[4-(1-{2,6-Dimethyl-2H-pyrazolo[3,4-b]pyridin-5-yl}-5-methyl-4-(1-methylcyclopropyl)-1H-pyrazol-3-yl)-2H-indazol-2-yl]-1-phenylethan-1-ol]
2400 nM |  | CCc1c(-c2cccc3nn(C[C@H](O)c4ccccc4)cc23)nn(-c2cc3cn(C)nc3nc2C)c1CC [Example 93, (1R)-2-[4-(1-{2,6-dimethyl-2H-pyrazolo[3,4-b]pyridin-5-yl}-4,5-diethyl-1H-pyrazol-3-yl)-2H-indazol-2-yl]-1-phenylethan-1-ol]
2400 nM |  | Cc1c(-n2nc(-c3cccc4nn(C[C@H](O)c5ccccc5)cc34)c(C(C)C)c2C)ccn2c(C)cnc12 [Example 94, (1R)-2-[4-(1-{3,8-dimethylimidazo[1,2-a]pyridin-7-yl}-5-methyl-4-(propan-2-yl)-1H-pyrazol-3-yl)-2H-indazol-2-yl]-1-phenylethan-1-ol]
2500 nM |  | Cc1nc2nn(C)cc2cc1-n1nc(-c2cccc3nn(C[C@H](O)c4ccccc4)cc23)c(C(C)CO)c1C (stereo partly drawn) [Example 95, 2-(1-{2,6-dimethyl-2H-pyrazolo[3,4-b]pyridin-5-yl}-3-{2-[(2R)-2-hydroxy-2-phenylethyl]-2H-indazol-4-yl}-5-methyl-1H-pyrazol-4-yl)propan-1-ol]
